The values below come from patent publication US9283222B2 (priority 2006, dated 2016).

Chain of Recombinant Human Poly(ADP-Ribose) Polymerase (PARP), PARP-1 (P09874 whole entry): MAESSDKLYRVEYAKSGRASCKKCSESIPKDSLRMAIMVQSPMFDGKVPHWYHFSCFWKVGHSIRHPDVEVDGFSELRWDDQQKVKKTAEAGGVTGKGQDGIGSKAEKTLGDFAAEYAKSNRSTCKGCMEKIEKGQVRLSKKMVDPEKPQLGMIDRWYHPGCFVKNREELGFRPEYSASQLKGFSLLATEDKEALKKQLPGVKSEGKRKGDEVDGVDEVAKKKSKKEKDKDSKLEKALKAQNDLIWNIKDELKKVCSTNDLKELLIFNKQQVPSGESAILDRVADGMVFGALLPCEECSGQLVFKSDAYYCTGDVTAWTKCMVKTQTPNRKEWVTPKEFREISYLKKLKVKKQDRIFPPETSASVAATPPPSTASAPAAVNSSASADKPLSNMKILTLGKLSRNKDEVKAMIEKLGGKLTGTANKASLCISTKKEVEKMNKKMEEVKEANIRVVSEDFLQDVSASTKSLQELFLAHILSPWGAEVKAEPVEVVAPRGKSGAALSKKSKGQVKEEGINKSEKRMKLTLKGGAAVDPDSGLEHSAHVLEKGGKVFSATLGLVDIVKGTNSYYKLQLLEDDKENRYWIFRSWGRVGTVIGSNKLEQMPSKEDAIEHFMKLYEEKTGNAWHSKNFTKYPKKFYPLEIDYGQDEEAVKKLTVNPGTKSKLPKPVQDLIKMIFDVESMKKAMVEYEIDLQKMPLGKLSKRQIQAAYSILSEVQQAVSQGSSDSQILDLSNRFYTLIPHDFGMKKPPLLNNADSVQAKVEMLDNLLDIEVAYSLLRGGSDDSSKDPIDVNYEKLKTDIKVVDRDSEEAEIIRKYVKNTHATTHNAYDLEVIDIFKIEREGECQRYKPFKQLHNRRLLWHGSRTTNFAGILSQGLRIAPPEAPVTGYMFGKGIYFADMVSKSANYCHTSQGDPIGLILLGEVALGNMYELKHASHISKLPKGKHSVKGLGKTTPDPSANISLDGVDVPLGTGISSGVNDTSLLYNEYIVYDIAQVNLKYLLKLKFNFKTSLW

One assay has as its target Recombinant Human Poly(ADP-Ribose) Polymerase (PARP), PARP-1 (Homo sapiens (Human), UniProt P09874). Particulars: read-out: PARP-1 (Ki).
Regarding `CC(C)C[C@H](NC(=O)Nc1cc(Cc2n[nH]c(=O)c3c2CCCC3)ccc1F)C(=O)O` [Example 626, N-[({2-fluoro-5-[(4-oxo-3,4,5,6,7,8-hexahydrophthalazin-1-yl)methyl]phenyl}amino)carbonyl]leucine], the Ki turned out to be 173 nM.

The same assay, now with this note: read-out: PARP-1 (Ki); Table 1; text calls the values EC50s.
Regarding `CCN(C(C)=O)C1CCN(C(=O)c2cc(Cc3n[nH]c(=O)c4c3NCCC4)ccc2F)C1` (stereo not shown) [Example 596, N-ethyl-N-(1-{2-fluoro-5-[(5-oxo-1,2,3,4,5,6-hexahydropyrido[2,3-d]pyridazin-8-yl)methyl]benzoyl}pyrrolidine-3-yl)acetamide], the Ki worked out at 6 nM. Still for that read-out and setting: the same measure for `CCC(=O)N1CCN(C(=O)c2cc(Cc3n[nH]c(=O)c4c3NCCC4)ccc2F)CC1` [Example 597, 8-{4-fluoro-3-[(4-propionylpiperazin-1-yl)carbonyl]benzyl}-2,3,4,6-tetrahydropyrido[2,3-d]pyridazin-5(1H)-one]: 0.8 nM; for `COc1ccc(N2CCN(C(=O)c3cc(Cc4n[nH]c(=O)c5c4NCCC5)ccc3F)CC2)cc1` [Example 599, 8-(4-fluoro-3-{[4-(4-methoxyphenyl)piperazin-1-yl]carbonyl}benzyl)-2,3,4,6-tetrahydropyrido[2,3-d]pyridazin-5(1H)-one]: 1.1 nM. As to `COc1ccc(S(=O)(=O)N2CCN(C(=O)c3cc(Cc4n[nH]c(=O)c5c4NCCC5)ccc3F)CC2)cc1` [Example 600, 8-[4-fluoro-3-({4-[(4-methoxyphenyl)sulfonyl]piperazin-1-yl}carbonyl)benzyl]-2,3,4,6-tetrahydropyrido[2,3-d]pyridazin-5(1H)-one], the inhibitory constant (Ki) came to 0.7 nM. Still for that read-out and setting: for `COc1ccc(C(=O)N2CCN(C(=O)c3cc(Cc4n[nH]c(=O)c5c4NCCC5)ccc3F)CC2)cc1` [Example 601, 8-(4-fluoro-3-{[4-(4-methoxybenzoyl)piperazin-1-yl]carbonyl}benzyl)-2,3,4,6-tetrahydropyrido[2,3-d]pyridazin-5(1H)-one] the value was 1.1 nM; for `O=C(c1cc(Cc2n[nH]c(=O)c3c2NCCC3)ccc1F)N1CCN(c2cccc(C(F)(F)F)c2)CC1` [Example 602, 8-[4-fluoro-3-({4-[3-(trifluoromethyl)phenyl]piperazin-1-yl}carbonyl)benzyl]-2,3,4,6-tetrahydropyrido[2,3-d]pyridazin-5(1H)-one], 3 nM; for `CN(C)CCCN1CCCN(C(=O)c2cc(Cc3n[nH]c(=O)c4c3NCCC4)ccc2F)C1` [Example 604, 8-(3-{[3-[3-(dimethylamino)propyl]tetrahydropyrimidin-1(2H)-yl]carbonyl}-4-fluorobenzyl)-2,3,4,6-tetrahydropyrido[2,3-d]pyridazin-5(1H)-one], 15 nM. Same read-out and setting: the same measure for `O=C1NC(Cc2ccccc2)C(=O)N1c1cc(Cc2n[nH]c(=O)c3c2NCCC3)ccc1F` (stereo not shown) [Example 605, 5-benzyl-3-{2-fluoro-5-[(5-oxo-1,2,3,4,5,6-hexahydropyrido[2,3-d]pyridazin-8-yl)methyl]phenyl}imidazolidine-2,4-dione]: 32 nM.

Turning to `O=C(c1ccccc1)C1CCN(C(=O)c2cc(Cc3n[nH]c(=O)c4c3NCCC4)ccc2F)CC1` [Example 609, 8-{3-[(4-benzoylpiperidin-1-yl)carbonyl]-4-fluorobenzyl}-2,3,4,6-tetrahydropyrido[2,3-d]pyridazin-5(1H)-one], the Ki is 1.8 nM. On to `COc1ccc(C(=O)C2CCN(C(=O)c3cc(Cc4n[nH]c(=O)c5c4NCCC5)ccc3F)CC2)cc1` [Example 610, 8-(4-fluoro-3-{[4-(4-methoxybenzoyl)piperidin-1-yl]carbonyl}benzyl)-2,3,4,6-tetrahydropyrido[2,3-d]pyridazin-5(1H)-one], for which the Ki was 1.7 nM. Same read-out and setting: the same measure for `O=C(c1ccc2cc[nH]c2c1)N1CCN(C(=O)c2cc(Cc3n[nH]c(=O)c4c3NCCC4)ccc2F)CC1` [Example 611, 8-(4-fluoro-3-{[4-(1H-indol-6-ylcarbonyl)piperazin-1-yl]carbonyl}benzyl)-2,3,4,6-tetrahydropyrido[2,3-d]pyridazin-5(1H)-one]: 1.6 nM; for `O=C(OCc1ccccc1)N1CCN(C(=O)c2cc(Cc3n[nH]c(=O)c4c3NCCC4)ccc2F)CC1` [Example 613, benzyl 4-{2-fluoro-5-[(5-oxo-1,2,3,4,5,6-hexahydropyrido[2,3-d]pyridazin-8-yl)methyl]benzoyl}piperazine-1-carboxylate]: 1.8 nM. Turning to `CC(C)(C)OC(=O)N1CCN(C(=O)c2cc(Cc3n[nH]c(=O)c4c3NCCC4)ccc2F)[C@H](c2ccccc2)C1` [Example 614, tert-butyl (3R)-4-{2-fluoro-5-[(5-oxo-1,2,3,4,5,6-hexahydropyrido[2,3-d]pyridazin-8-yl)methyl]benzoyl}-3-phenylpiperazine-1-carboxylate], the inhibition constant Ki turned out to be 25 nM.

For the molecule `C[C@@H]1CN(C(=O)c2ccccc2)CCN1C(=O)c1cc(Cc2n[nH]c(=O)c3c2NCCC3)ccc1F` [Example 616, 8-(3-{[(2R)-4-benzoyl-2-methylpiperazin-1-yl]carbonyl}-4-fluorobenzyl)-2,3,4,6-tetrahydropyrido[2,3-d]pyridazin-5(1H)-one], the Ki was found to be 2.3 nM. In the case of `CN(C(=O)Nc1cc(Cc2n[nH]c(=O)c3c2CCCC3)ccc1F)c1ccccc1` [Example 618, N′-{2-fluoro-5-[(4-oxo-3,4,5,6,7,8-hexahydrophthalazin-1-yl)methyl]phenyl}-N-methyl-N-phenylurea], the Ki was determined as 41 nM. On the same count and under the same terms, the same measure for `CCN(C(C)=O)C1CCN(C(=O)c2cc(Cc3n[nH]c(=O)c4c3CCCC4)ccc2F)C1` (stereo not shown) [Example 619, N-ethyl-N-(1-{2-fluoro-5-[(4-oxo-3,4,5,6,7,8-hexahydrophthalazin-1-yl)methyl]benzoyl}pyrrolidine-3-yl)acetamide]: 4 nM; for `COc1ccc(S(=O)(=O)N2CCN(C(=O)c3cc(Cc4n[nH]c(=O)c5c4CCCC5)ccc3F)CC2)cc1` [Example 620, 4-[4-fluoro-3-({4-[(4-methoxyphenyl)sulfonyl]piperazin-1-yl}carbonyl)benzyl]-5,6,7,8-tetrahydrophthalazin-1(2H)-one]: 2.2 nM. Turning to `O=C(c1cc(Cc2n[nH]c(=O)c3c2CCCC3)ccc1F)N1CCN(c2cccc(C(F)(F)F)c2)CC1` [Example 621, 4-[4-fluoro-3-({4-[3-(trifluoromethyl)phenyl]piperazin-1-yl}carbonyl)benzyl]-5,6,7,8-tetrahydrophthalazin-1(2H)-one], the Ki stood at 8 nM.

Turning to `COc1ccc(C(=O)N2CCN(C(=O)c3cc(Cc4n[nH]c(=O)c5c4CCCC5)ccc3F)CC2)cc1` [Example 622, 4-(4-fluoro-3-{[4-(4-methoxybenzoyl)piperazin-1-yl]carbonyl}benzyl)-5,6,7,8-tetrahydrophthalazin-1(2H)-one], the inhibitory constant (Ki) was 2.4 nM.

Turning to `COc1ccc(N2CCN(C(=O)c3cc(Cc4n[nH]c(=O)c5c4CCCC5)ccc3F)CC2)cc1` [Example 623, 4-(4-fluoro-3-{[4-(4-methoxyphenyl)piperazin-1-yl]carbonyl}benzyl)-5,6,7,8-tetrahydrophthalazin-1(2H)-one], the Ki was 3 nM. Still for that read-out and setting: for `O=C(c1cc(Cc2n[nH]c(=O)c3c2CCCC3)ccc1F)N1CCN(C(=O)C2CCCCC2)CC1` [Example 624, 4-(3-{[4-(cyclohexylcarbonyl)piperazin-1-yl]carbonyl}-4-fluorobenzyl)-5,6,7,8-tetrahydrophthalazin-1(2H)-one] the value was 2.5 nM; for `O=C(O)CNC(=O)Nc1cc(Cc2n[nH]c(=O)c3c2CCCC3)ccc1F` [Example 625, N-[({2-fluoro-5-[(4-oxo-3,4,5,6,7,8-hexahydrophthalazin-1-yl)methyl]phenyl}amino)carbonyl]glycine], 21 nM; for `C[C@H](NC(=O)Nc1cc(Cc2n[nH]c(=O)c3c2CCCC3)ccc1F)C(=O)O` [Example 627, N-[({2-fluoro-5-[(4-oxo-3,4,5,6,7,8-hexahydrophthalazin-1-yl)methyl]phenyl}amino)carbonyl]alanine], 85 nM. The same measure, in the same setting: the same measure for `O=C(Nc1cc(Cc2n[nH]c(=O)c3c2CCCC3)ccc1F)N[C@@H](Cc1ccccc1)C(=O)O` [Example 628, N-[({2-fluoro-5-[(4-oxo-3,4,5,6,7,8-hexahydrophthalazin-1-yl)methyl]phenyl}amino)carbonyl]phenylalanine]: 54 nM.

Turning to `O=C1CNC(=O)N1c1cc(Cc2n[nH]c(=O)c3c2CCCC3)ccc1F` [Example 630, 3-{2-fluoro-5-[(4-oxo-3,4,5,6,7,8-hexahydrophthalazin-1-yl)methyl]phenyl}imidazolidine-2,4-dione], the inhibitory constant (Ki) amounted to 0.7 nM. The same measure, in the same setting: the same measure for `COc1ccccc1N1CCN(C(=O)c2cc(Cc3n[nH]c(=O)c4c3NCCC4)ccc2F)CC1` [Example 631, 8-(4-fluoro-3-{[4-(2-methoxyphenyl)piperazin-1-yl]carbonyl}benzyl)-2,3,4,6-tetrahydropyrido[2,3-d]pyridazin-5(1H)-one]: 2.8 nM; for `O=C(c1cc(Cc2n[nH]c(=O)c3c2NCCC3)ccc1F)N1CCN(c2ncncn2)CC1` [Example 632, 8-(4-fluoro-3-{[4-(1,3,5-triazin-2-yl)piperazin-1-yl]carbonyl}benzyl)-2,3,4,6-tetrahydropyrido[2,3-d]pyridazin-5(1H)-one]: 0.9 nM.

Turning to `CC1(C(=O)N2CCCN(C(=O)c3cc(Cc4n[nH]c(=O)c5c4CCCC5)ccc3F)CC2)CC1` [Example 635, 4-[4-fluoro-3-({4-[(1-methylcyclopropyl)carbonyl]-1,4-diazepan-1-yl}carbonyl)benzyl]-5,6,7,8-tetrahydrophthalazin-1(2H)-one], the inhibitory constant (Ki) was 1.8 nM.

Turning to `Cn1cnc(C(=O)N2CCCN(C(=O)c3cc(Cc4n[nH]c(=O)c5c4CCCC5)ccc3F)CC2)c1` [Example 636, 4-[4-fluoro-3-({4-[(1-methyl-1H-imidazol-4-yl)carbonyl]-1,4-diazepan-1-yl}carbonyl)benzyl]-5,6,7,8-tetrahydrophthalazin-1(2H)-one], the inhibitory constant (Ki) turned out to be 1.8 nM. For `Cn1cncc1C(=O)N1CCCN(C(=O)c2cc(Cc3n[nH]c(=O)c4c3CCCC4)ccc2F)CC1` [Example 637, 4-[4-fluoro-3-({4-[(1-methyl-1H-imidazol-5-yl)carbonyl]-1,4-diazepan-1-yl}carbonyl)benzyl]-5,6,7,8-tetrahydrophthalazin-1(2H)-one], the inhibition constant Ki is 4 nM.
